Test results: publication PMC5529018, “Discovery of novel brain permeable and G protein-biased beta-1 adrenergic receptor partial agonists for the treatment of neurocognitive disorders” (PLoS ONE, 2017)
Blank lines part the entries; values can stand above or below the molecule they belong to.

Key:
ADRB1 [1] = target: T1, ADRB1 (Homo sapiens, UniProt P08588); experiment: β-arrestin assay (PathHunter enzyme fragment complementation); type: cell-based; set-up: host or cells: CHO-K1 (PathHunter)
Experimental: Pharmacological activity of compounds in the β-arrestin pathway mediated by ADRB1 were evaluated using an enzyme fragment complementation method with a β‐galactosidase functional reporter. An engineered CHO-K1-ADRB1 PathHunter cell line (DiscoveRx) was used in the assay. In this cell line, the enzyme acceptor (β‐galactosidase fragment) is fused to β-arrestin and the enzyme donor (β‐galactosidase fragment) is fused to the ADRB1. Thus, activation of the ADRB1 stimulates binding of β-arrestin to the ProLink-tagged ADRB1 and forces complementation of the two enzyme fragments, resulting in the formation of an active β‐galactosidase enzyme. Briefly, CHO-K1-ADRB1 PathHunter cell lines were plated in a total volume of 20 μL cell plating reagent (DiscoveRx, 93-0563R0A) at a density of 2,500 cells/well into 384 well microplates and incubated overnight at 37°C in 5% CO2. […] Chemiluminescent signal was then read with a PerkinElmer Envision (Perkin Elmer, Inc., MA) instrument. The results were expressed as a percent of the maximum efficacy achieved with isoproterenol.

ADRB1 [2] = target: T1, ADRB1; experiment: cAMP assay (HTRF), ADRB1; type: cell-based; set-up: expressed in transfected cells; host or cells: HEK-293; settings: for Emax: 0.5 h, percent efficacy vs maximum response of isoproterenol, read-out: cAMP pathway ADRB1 % Iso max; for EC50 / cAMP pathway ADRB1 EC50: HEK-293 cells, geometric mean (95% confidence limits) of at least two experiments; for EC50: read-out: cAMP pathway ADRB1 EC50; for ADRB1 agonist activity (cAMP pathway), in words: compared to xamoterol (S)
Experimental: Pharmacological effects of compounds at the cAMP pathway mediated by ADRB1 were evaluated by measuring cAMP production using the homogenous time-resolved fluorescence detection method with HEK-293 cells stably expressing human recombinant ADRB1. Briefly, cells were suspended in HBSS buffer completed with 20 mM HEPES (pH 7.4) and 500 μM IBMX (3-isobutyl-1-methylxanthine) and distributed at a density of 3x10^3 cells/well. […] Following incubation, the cells were lysed and the fluorescence acceptor (D2-labeled cAMP) and fluorescence donor (anti-cAMP antibody labeled with europium cryptate) were added. […] The results were expressed as a percent of the maximum efficacy achieved with isoproterenol. Pharmacological effects of compounds at the cAMP pathway mediated by ADRB2 and ADRB3 were measured as described above using CHO cells stably expressing human recombinant ADRB2 and human SK-N-MC neurotumor cells endogenously expressing ADRB3, respectively.

[3] = tested on: LPS-induced TNFα production in primary microglia; experiment: In vitro primary microglia TNFα assay; type: cell-based, Sprague Dawley rat; settings: Rattus norvegicus, 4 h, read-out: inhibition of LPS-induced TNFα production
Text: Mixed glial cells were obtained from the cerebral cortex of Sprague Dawley rat pups at postnatal days 1–3. Briefly, neonates were euthanized by decapitation and their brain tissues were collected for cortex isolation. The isolated cortex was then trypsinized, triturated, and placed into tissue culture flasks in DMEM supplemented with 10% fetal bovine serum and 1% Penicillin/Streptomycin. After 10 days in vitro, microglia were harvested by gentle shaking of the growth flask, plated in a 96 well plate at a density of 30,000 cells/well, and incubated at 37°C overnight.

[4] = tested on: LPS-induced TNFα response; experiment: In vivo LPS assay; set-up: species or system C57Bl/6J mice; settings: 90 min post-LPS
Experimental: ; subcutaneous; […]; intraperitoneal; n = 4) or vehicle (5% DMSO/20%PEG400/water; intraperitoneal; n = 12) 15 min prior to LPS (50 ug/kg; intraperitoneal). A control group was injected with vehicle 15 minutes prior to saline (n = 18). Following injections, mice were single-housed. At 90 min post-LPS/saline, mice were deeply anesthetized with isoflurane and blood was collected from the right ventricle via cardiac puncture (23 g needle) into lithium heparin-containing vials (BD microtainer plasma tubes). Subsequently, brains were collected after perfusion with phosphate-buffered saline. Plasma was separated by centrifugation (11,000 rpm for 3 minutes) within 60 min of collection and stored at -80°C until analysis. The concentration of TNFα in the collected plasma was measured by ELISA (Invitrogen, KMC3012) according to the manufacturer’s instruction. The LPS-induced inflammatory response in the CNS was assessed by measuring mRNA expression for genes related to neuroimmune activation in brain tissue according to the previously reported method. Briefly, total RNA was extracted from hippocampus containing coronal sections using the RNeasy Lipid Tissue Mini Kit (Qiagen), and transcribed into cDNA (Superscript III, Invitrogen). PCR was performed in duplicate using TaqMan gene expression assays, TNFα (Mm00443258_m1), IL1b (Mm00434228_m1), IL6 (Mm00446190_m1), and glyceraldehyde-3-phosphate dehydrogenase (GAPDH; Mm99999915_g1). Fold changes of expression relative to control were determined after normalization to GAPDH. Relative quantification and fold change were calculated by the comparative CT method. Brain uptake of STD-101-D1 was determined in brain tissue. […]

[5] = target: panel of CNS relevant targets, including G protein-coupled receptors and transporters; experiment: Off-target binding screen, panel of CNS relevant targets; settings: broad range of neurotransmitter transporters, ion channels and other CNS proteins; read-out: off-target affinity Ki
[6] = Pharmacokinetic study 2, 20-min post-dose collection; type: in vivo, Sprague-Dawley rats; settings: rat, 10 mg/kg, 20 min post-dose
Text: Two cohorts of Sprague-Dawley rats were used in two independent studies. All animals were fasted overnight before the experiment with free access to water. In study 1, a total of 18 rats were used for a 4 hr time course pharmacokinetic (PK) study. Rats were anesthetized with 3% isoflurane and catheters were implanted into the jugular and/or portal veins for compound administration and/or blood sampling at 1 to 2 days prior to the experiments as previously described. […] Four hours post-dose, rats were deeply anesthetized with isoflurane and blood samples were collected by cardiac puncture. In study 2, a total of 18 rats were used for a 20 min post-dose collection study. […] At 20 min post-dose, rats were deeply anesthetized with isoflurane and blood samples were collected by cardiac puncture. Brains were collected after perfusion with phosphate buffered saline. All plasma samples were immediately separated after collection by centrifugation (11,000 rpm for 3 minutes) and stored at −80°C until analysis. […] Tulobuterol was used as the internal standard. The flow rate was set to 0.45 ml/min. Column temperature was 25°C. […] The injection volume was 20 μl. The mass spectrometer was operated in the positive mode with multiple-reaction monitoring (MRM). […] Mobile phase A consisted of 10 mM ammonium acetate and 0.1% formic acid in LCMS grade water. Mobile phase B consisted of 10 mM ammonium acetate and 0.1% formic acid in LCMS grade acetonitrile:water 90:10% (v/v). […] Five μl of the extracted samples were injected. […] Data acquisition and analysis were performed using the Analyst 1.6.1 software (AB SCIEX, CA).

[7] = Cardiovascular studies (heart rate, blood pressure); type: in vivo, Sprague-Dawley rats; settings: anesthetized rats, 3 mg/kg subcutaneous
Experimental: A polyethylene catheter (PE50) filled with heparinized saline was then inserted into the tail artery and connected to the blood pressure transducer system. After ensuring the absence of any air bubbles, 5–10 min of baseline systolic and diastolic blood pressure along with heart rate measurements were recorded using LabChart Pro (AD Instruments, CO).

[8] = cited from earlier work

T1 sequence (P08588 whole entry, the tested form may be a part): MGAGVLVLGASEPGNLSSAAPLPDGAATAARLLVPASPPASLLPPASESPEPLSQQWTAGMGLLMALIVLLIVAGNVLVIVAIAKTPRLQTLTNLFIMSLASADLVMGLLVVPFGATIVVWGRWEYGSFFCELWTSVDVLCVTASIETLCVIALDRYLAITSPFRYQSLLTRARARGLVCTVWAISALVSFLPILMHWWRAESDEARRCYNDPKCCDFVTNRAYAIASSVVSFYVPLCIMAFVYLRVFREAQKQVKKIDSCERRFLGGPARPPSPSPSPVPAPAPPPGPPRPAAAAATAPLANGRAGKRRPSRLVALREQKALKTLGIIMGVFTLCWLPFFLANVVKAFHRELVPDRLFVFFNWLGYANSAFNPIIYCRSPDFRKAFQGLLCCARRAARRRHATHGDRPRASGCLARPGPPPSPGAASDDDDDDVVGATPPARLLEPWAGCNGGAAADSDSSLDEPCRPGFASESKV

Structure (SMILES): COc1ccc(CCNCC(O)COc2ccc(O)c(O)c2)cc1OC (stereo not shown) [RO363, reference compound]
- EC50 (ADRB1 [1]; CHO-K1-ADRB1 PathHunter cells, read-out: β-arrestin pathway ADRB1 EC50): 32.2 nM
- β-arrestin pathway ADRB1 % Iso max (ADRB1 [1]; percent efficacy vs maximum response of isoproterenol): 36.5%
- decrease in potency vs xamoterol (S), cAMP ADRB1 (ADRB1 [2]): approximately 3 fold
- increase in efficacy vs xamoterol (S), cAMP ADRB1 (ADRB1 [2]): approximately 2 fold
- Emax (ADRB1 [2]): 104 ± 23.9%
- EC50 (ADRB1 [2]): 7.9 nM

Structure (SMILES): N#Cc1cc(OC[C@@H](O)CNCCNC(=O)N2CCOCC2)ccc1O [STD-101-B6, (S)-N-(2-((3-(3-cyano-4-hydroxyphenoxy)-2-hydroxypropyl)amino)ethyl)morpholine-4-carboxamide]
- Emax (ADRB1 [2]): 25.1 ± 4.7%
- EC50 (ADRB1 [2]): 7.1 nM
- ADRB1 agonist activity (cAMP pathway), in words (ADRB1 [2]): decrease in both potency and efficacy

Structure (SMILES): N#Cc1cc(OC[C@@H](O)CNCCNC(=O)N2CCOCC2)c(F)cc1O [STD-101-B8, (S)-N-(2-((3-(5-cyano-2-fluoro-4-hydroxyphenoxy)-2-hydroxypropyl)amino)ethyl)morpholine-4-carboxamide]
- cAMP pathway ADRB1 EC50 (ADRB1 [2]): no response
- ADRB1 agonist activity (cAMP pathway), in words (ADRB1 [2]): abolished the agonist activity completely

Structure (SMILES): O=C(NCCNCC(O)COc1ccc(O)cc1)N1CCOCC1 (stereo not shown) [Xamoterol, reference compound]
- CNS inflammatory markers after LPS ([4]; 3 mg/kg subcutaneous pre-treatment): Significant effects of xamoterol were not observed
- plasma concentration after PO as percent of that after IP [6]: 0.2%
- plasma concentration after PO as percent of that after IV [6]: 0.7%
- decrease in blood pressure [7]: 9%
- increase in heart rate [7]: 4%
- oral bioavailability in humans [8]: 5%

Structure (SMILES): CC(C)NCC(O)c1ccc(O)c(O)c1 (stereo not shown) [isoproterenol]
- inhibition at 10 µM [3]: ~80%

Further lines, with some results ahead:

- cAMP pathway ADRB1 EC50 (ADRB1 [2]): no response
Structure (SMILES): O=C(NCCNC[C@H](O)COc1cc(Cl)c(O)cc1F)N1CCOCC1 [STD-101-B4, (S)-N-(2-((3-(5-chloro-2-fluoro-4-hydroxyphenoxy)-2-hydroxypropyl)amino)ethyl)morpholine-4-carboxamide]
- ADRB1 agonist activity (cAMP pathway), in words (ADRB1 [2]): abolished the agonist activity completely

- cAMP pathway ADRB1 EC50 (ADRB1 [2]): no response
- ADRB1 agonist activity (cAMP pathway), in words (ADRB1 [2]): inactive
Structure (SMILES): O=C(NCCNC[C@H](O)COc1cccc2c(O)cccc12)N1CCOCC1 [STD-101-E, (S)-N-(2-((2-hydroxy-3-((5-hydroxynaphthalen-1-yl)oxy)propyl)amino)ethyl)morpholine-4-carboxamide]

- Ki [5]: > 10000 nM
Structure (SMILES): O=C(NCCNC[C@H](O)COc1ccc(O)cc1)N1CCOCC1 [Xamoterol (S)]
- inhibition at 10 µM [3]: ~55%
- LPS-induced systemic (plasma) TNFα response ([4]; 3 mg/kg pre-treatment 15 min prior to LPS): markedly inhibited
